Test results: patent publication US10517889B2, “Modulators of SMAD7 expression” (Ionis Pharmaceuticals, Inc., priority 2017, dated 2019)
Strand notation (5' to 3'): a small letter for the sugar, then the base; units joined by * are phosphorothioate-linked, units joined directly phosphodiester-linked; [ ] holds rarer units or linkages, { } end groups; capitals alone tell only the bases. k = constrained ethyl (cEt); [5mC] = 5-methylcytosine; d = 2'-deoxy (DNA)

tested on: human SMAD7 mRNA; assay: Antisense inhibition of human SMAD7 mRNA expression in Hep3B cells by 3-10-3 cEt gapmers, 10,000 nM, electroporation (Example 2); type: cell-based; conditions: Hep3B cells, 10,000 nM antisense oligonucleotide, electroporation, approximately 24 hours, RT-PCR primer probe set RTS5062, relative to untreated control cells
How it was run: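 Hep3B, 20,000 cells/well; electroporation, 10,000 nM ASO; ~24 h. Readout: SMAD7 mRNA by qRT-PCR (RTS5062), RIBOGREEN-normalised; % inhibition vs untreated.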

In order of rising “% Inhibition” value:
1. 799993 (kA*kT*kA*dA*dT*dG*dA*dA*dG*dT*dG*dA*dT*kA*kT*kT; antisense) [compound 799993]  0%
2. 799879 (kT*kG*kG*dA*dA*dA*dA*dG*d[5mC]*dT*d[5mC]*d[5mC]*dT*kT*k[5mC]*kT; antisense) [compound 799879]  3%
3. 799998 (k[5mC]*kA*kG*dT*dA*dA*dA*dG*dA*d[5mC]*dA*dT*dG*kA*kG*k[5mC]; antisense) [compound 799998]  45%

same assay, conditions: Hep3B cells, electroporation with 10,000 nM antisense oligonucleotide, approximately 24 hours, RTS5062, percent inhibition of SMAD7 mRNA relative to untreated control cells

In order of falling “% Inhibition” value:
1. 799623 (kT*kA*k[5mC]*dA*dA*dT*d[5mC]*dT*d[5mC]*d[5mC]*dT*dG*dG*kA*kA*kG; antisense) [compound 799623]  45%
2. 799745 (antisense kG*kG*k[5mC]*dA*dG*dT*dT*dA*dA*d[5mC]*dA*dT*dT*kT*k[5mC]*kA) [compound 799745]  43%

same assay, conditions: Hep3B cells, electroporation with 10,000 nM antisense oligonucleotide, approximately 24 hours, SMAD7 mRNA by RT-PCR (RTS5062), relative to untreated control cells

In order of falling “% Inhibition” value:
1. 790464 (kA*kG*k[5mC]*dG*dA*dA*d[5mC]*dA*dT*dG*dA*d[5mC]*d[5mC]*kT*k[5mC]*k[5mC]; antisense) [compound 790464]  58%
2. 830166 (antisense k[5mC]*kA*k[5mC]*dA*dG*d[5mC]*dT*dG*dT*dA*d[5mC]*d[5mC]*dA*kG*kG*kG) [compound 830166]  48%
3. 830123 (antisense kG*kG*k[5mC]*dA*d[5mC]*d[5mC]*dA*d[5mC]*dA*dT*dT*dT*dT*k[5mC]*kA*k[5mC]) [compound 830123]  44%
4. 799864 (k[5mC]*kT*k[5mC]*dA*dA*dG*d[5mC]*d[5mC]*d[5mC]*dA*d[5mC]*d[5mC]*d[5mC]*k[5mC]*kG*kG; antisense) [compound 799864]  42%
5. 798768 (kG*kA*kG*dA*dT*d[5mC]*d[5mC]*dG*dG*d[5mC]*d[5mC]*dA*d[5mC]*k[5mC]*kT*kG; antisense) [compound 798768]  42%
6. 800068 (antisense kA*k[5mC]*kA*d[5mC]*dT*dA*dA*d[5mC]*dT*dG*dG*d[5mC]*dT*k[5mC]*k[5mC]*kA) [compound 800068]  34%
7. 800020 (kA*kA*k[5mC]*d[5mC]*dT*d[5mC]*dT*dG*dA*dA*dG*dG*d[5mC]*kA*kA*kA; antisense) [compound 800020]  21%
8. 799870 (kA*k[5mC]*k[5mC]*d[5mC]*dA*dG*dA*dA*dG*d[5mC]*dT*dG*d[5mC]*kT*kG*kT; antisense) [compound 799870]  18%
9. 799906 (antisense k[5mC]*kA*kT*dG*d[5mC]*dA*dG*dT*d[5mC]*dG*dA*dA*dT*k[5mC]*kA*kT) [compound 799906]  11%
10. 799907 (antisense kA*kG*kT*dA*dA*dA*dG*dG*dG*d[5mC]*d[5mC]*dT*d[5mC]*kT*k[5mC]*kT) [compound 799907]  10%
11. 798664 (kG*kG*k[5mC]*d[5mC]*dT*dG*d[5mC]*dG*d[5mC]*dT*d[5mC]*d[5mC]*dG*kG*k[5mC]*kT; antisense) [compound 798664]  7%
12. 799942 (antisense kA*kA*k[5mC]*dA*d[5mC]*dT*dG*dG*dT*dT*d[5mC]*d[5mC]*dA*kT*kT*kT) [compound 799942]  0%
13. 798883 (kT*kA*kA*dA*dG*d[5mC]*d[5mC]*d[5mC]*dG*dT*d[5mC]*d[5mC]*dA*k[5mC]*kG*kG; antisense) [compound 798883]  0%
14. 798829 (kG*kA*kT*dA*dT*d[5mC]*d[5mC]*dA*dG*dA*dG*dA*dG*kG*kG*k[5mC]; antisense) [compound 798829]  0%
15. 800081 (antisense k[5mC]*kG*kG*dT*dA*dT*dT*dA*dA*d[5mC]*d[5mC]*d[5mC]*dG*kG*kG*k[5mC]) [compound 800081]  0%

same assay, conditions: Hep3B cells, electroporation with 10,000 nM antisense oligonucleotide, approximately 24 hours, primer probe set RTS5062, relative to untreated control cells

In order of falling “% Inhibition” value:
1. 798960 (antisense kA*k[5mC]*k[5mC]*d[5mC]*d[5mC]*d[5mC]*dA*dA*d[5mC]*dA*dA*dT*dT*k[5mC]*kT*kT) [compound 798960]  39%
2. 799018 (k[5mC]*kT*kG*d[5mC]*dA*dA*dA*d[5mC]*d[5mC]*dT*d[5mC]*dT*d[5mC]*kT*kG*k[5mC]; antisense) [compound 799018]  29%
3. 799179 (antisense kA*kA*kT*dA*dG*d[5mC]*dT*dT*dA*dT*dG*dT*dT*kA*kA*kA) [compound 799179]  0%

In order of falling “% inhibition of SMAD7 mRNA expression” value:
1. 799111 (antisense kA*kG*k[5mC]*dA*dG*dG*d[5mC]*dA*dG*dT*dG*d[5mC]*dT*kG*kA*kG) [compound 799111]  50%
2. 799188 (antisense kT*kG*k[5mC]*dT*dT*d[5mC]*dT*d[5mC]*dT*dT*dG*dT*dT*k[5mC]*kA*kT) [compound 799188]  43%
3. 799202 (antisense kT*kT*kT*dT*dT*dT*dT*d[5mC]*dA*dG*dG*dA*dG*kT*k[5mC]*k[5mC]) [compound 799202]  33%
4. 799245 (kG*kT*kA*dT*d[5mC]*dT*dG*dG*dG*d[5mC]*d[5mC]*dA*d[5mC]*kT*kG*kG; antisense) [compound 799245]  18%

same assay, conditions: Hep3B cells, electroporation, 10,000 nM antisense oligonucleotide, approximately 24 hours, RTS5062, relative to untreated control cells

In order of falling “% inhibition of SMAD7 mRNA expression” value:
1. 798806 (kT*kG*kA*dA*dA*dG*d[5mC]*d[5mC]*d[5mC]*d[5mC]*d[5mC]*d[5mC]*dA*kG*kG*kG; antisense) [compound 798806]  50%
2. 772813 (kA*kA*kG*dG*dG*d[5mC]*dG*d[5mC]*dA*dG*dG*dA*dA*kA*kG*kG; antisense) [compound 772813]  43%
3. 799614 (kG*kG*k[5mC]*d[5mC]*dT*dT*dT*dG*dA*dG*d[5mC]*dA*d[5mC]*kA*k[5mC]*k[5mC]; antisense) [compound 799614]  37%
4. 799832 (antisense k[5mC]*kA*k[5mC]*d[5mC]*d[5mC]*dA*dT*dA*d[5mC]*dT*dT*dG*dG*kA*kA*kG) [compound 799832]  14%

same assay, conditions: SMAD7 mRNA, Hep3B cells, 10,000 nM antisense oligonucleotide, electroporation, approximately 24 hours, primer probe set RTS5062, relative to untreated control cells

In order of falling “% Inhibition” value:
1. 829779 (antisense kG*kG*kG*dA*dG*d[5mC]*dG*dA*dG*dT*dA*dG*dG*kA*k[5mC]*kG) [compound 829779]  58%
2. 772735 (kA*kA*k[5mC]*dT*dG*dT*dT*dT*dG*dT*d[5mC]*dT*dT*kA*kG*k[5mC]; antisense) [compound 772735]  52%
3. 772552 (antisense kG*k[5mC]*kG*d[5mC]*d[5mC]*dT*dT*d[5mC]*dA*dG*dA*dT*d[5mC]*k[5mC]*kG*k[5mC]) [compound 772552]  34%
4. 829787 (antisense kG*kG*kA*dA*dT*dG*d[5mC]*d[5mC]*dT*dG*dA*dG*dA*kT*k[5mC]*k[5mC]) [compound 829787]  30%
5. 829794 (kG*kA*kT*d[5mC]*dT*dT*d[5mC]*d[5mC]*d[5mC]*dG*dT*dA*dA*kG*kA*kT; antisense) [compound 829794]  24%
6. 790775 (kT*kA*k[5mC]*dA*dA*dG*dG*dT*dG*dA*dA*dA*dG*kT*kT*kA; antisense) [compound 790775]  7%

same assay, conditions: SMAD7 mRNA, Hep3B cells, electroporation with 10,000 nM antisense oligonucleotide, approximately 24 hours, primer probe set RTS5062, relative to untreated control cells

In order of rising “% Inhibition” value:
1. 829855 (antisense kA*kG*k[5mC]*dT*dG*dA*d[5mC]*dT*d[5mC]*dT*dT*dG*dT*kT*kG*kT) [compound 829855]  0%
2. 829974 (kA*kA*kA*dA*dG*dA*dG*dG*d[5mC]*d[5mC]*dG*d[5mC]*d[5mC]*kT*kG*kG; antisense) [compound 829974]  27%
3. 829803 (kA*kG*kT*dT*d[5mC]*dG*d[5mC]*dA*dG*dA*dG*dT*d[5mC]*kG*kG*k[5mC]; antisense) [compound 829803]  35%
